In US20160128953A1, “TRANS-CLOMIPHENE AND ITS ANALOGUES AS AGENTS THAT INCREASE BONE MINERAL DENSITY” (REPROS THERAPEUTICS INC., priority 2013, published 2016):
Marks after values point to notes of the source that are not given here.

How the values were obtained:
[1] = test system: human males with secondary hypogonadism; experiment: Serum P1NP-1 (biomarker of bone formation) by immunoassay; type: in vivo
Procedure: (§1) The effect of the isolated trans-clomiphene isomer on the serum level of biomarkers of bone resorption was assessed in human males with secondary hypogonadism.
(§2) Adult male subjects with a morning total testosterone blood level of <300 ng/dl and a serum LH of <15 IU/ml were administered either trans-clomiphene ([…] or 25 mg/day via oral capsule) or a topical testosterone gel (Testim®, 50 mg applied daily) over a three month period. Quantitative determination of baseline serum (circulating) estrogen (E2), dihydrotestosterone (DHT), sex hormone binding globulin (SHBG), P1NP-1 and CTX measurements were made in the subjects by immunoassay. Treatment with either trans-clomiphene (12.5 mg or 25 mg) or Testim® was then initiated. Follow-up measurements were taken at 3 weeks post initial dose, 6 months post initial dose and one month after cessation of treatment. The results are presented below at Table 1:
(§3) The effects of trans-clomiphene and Testim® on the level of serum biomarkers of bone formation (P1NP) and bone resorption (CTX) are illustrated at FIGS. 1 and 2. […] The lower levels of P1NP-1 at both trans-clomiphene doses are well within the normal range (15-80 μg/L). A decrease in CTX levels was also observed at both trans-clomiphene dosages; however, the decrease was much stronger at the 25 mg dose. […]

[2] = test system: human males with secondary hypogonadism; experiment: Serum CTX (biomarker of bone resorption) by immunoassay; type: in vivo
Procedure: as §1, §2, §3

[3] = test system: human males with secondary hypogonadism; experiment: Serum hormone (DHT, E2) and SHBG levels by immunoassay in treated men; type: in vivo; details: for DHT / E2 / SHBG: serum
Procedure: as §1
as §2, with “Follow-up measurements were taken at 3 weeks post initial dose, 6 months post initial dose and one month after cessation of treatment. The results are presented below at Table 1:” left out

[4] = test system: hypogonadal males; experiment: Total hip bone mineral density (BMD) by DEXA scan; type: in vivo, human; details: 6 months daily trans-clomiphene (12.5 mg, or up-titrated to 25 mg/day); 15 hypogonadal males; FIG. 3
Procedure: The effect of trans-clomiphene on total hip bone mineral density (BMD) was assessed by dual-energy x-ray absorptiometry (DEXA) scans in 15 hypogonadal males (morning testosterone less than 300 ng/dL) with body mass index (BMI) ranging between 25 and 42 and no evidence of bone disease (including ostepenia) prior to treatment. DEXA scans were performed prior to treatment with trans-clomiphene to determine baseline measurements and after 6 months of daily administration of trans-clomiphene. Four of the 15 subjects received 12.5 mg trans-clomiphene administered daily throughout the 6 month period. Eleven of the 15 subjects began at the 12.5 mg/day dose but were later up-titrated to 25 mg/day. Total hip BMD was also assessed in 25 placebo (control) subjects at the same time points. BMD measurements at the 6 month time point in both treated and control subjects were compared to baseline measurements.

[5] = 12.5 mg Androxal daily oral, 3 months
[6] = 12.5 mg Androxal daily oral, 6 weeks
[7] = 12.5 mg Androxal daily oral, Baseline (before TxT)
[8] = 12.5 mg Androxal daily oral, Post TxT (one month after cessation)
[9] = 25 mg Androxal daily oral, 3 months
[10] = 25 mg Androxal daily oral, 6 weeks
[11] = 25 mg Androxal daily oral, Baseline (before TxT)
[12] = 25 mg Androxal daily oral, Post TxT (one month after cessation)

## CCN(CC)CCOc1ccc(/C(=C(/Cl)c2ccccc2)c2ccccc2)cc1 [Androxal, trans-clomiphene]
[1]; 25 mg trans-clomiphene daily, dose dependency
  change in serum P1NP-1 levels, 25 mg dose compared with 12.5 mg dose: more robust decrease
[1]; either dose of trans-clomiphene (12.5 mg or 25 mg daily), FIG. 1
  change in serum P1NP-1 levels: decrease
[2]; 25 mg trans-clomiphene daily
  decrease in serum CTX levels, 25 mg dose compared with 12.5 mg dose: much stronger
[2]; both trans-clomiphene dosages (12.5 mg and 25 mg daily), FIG. 2
  change in serum CTX levels: decrease
[3]; after cessation of trans-clomiphene treatment
  serum estrogen levels after cessation of treatment compared with baseline: remained elevated
[3]; daily administration of trans-clomiphene for 6 weeks and 3 months
  change in serum estradiol 17β (E2): significant increase
[3]; [5]
  DHT: 20.4^ ng/DL
  E2: 56.7*¶ pg/mL
  SHBG: 29.3 nmol/L
[3]; [6]
  DHT: 22.7*^ ng/DL
  E2: 52.1*¶ pg/mL
  SHBG: 28.6 nmol/L
[3]; [7]
  DHT: 15 ng/dL
  E2: 20.8 pg/mL
  SHBG: 24.7 nmol/L
[3]; [8]
  DHT: 13.7 ng/dL
  E2: 39.1* pg/mL
  SHBG: 24.9 nmol/L
[3]; [9]
  DHT: 23.2*^ ng/DL
  E2: 46.3*¶ pg/mL
  SHBG: 29.5 nmol/L
[3]; [10]
  DHT: 22.2*^ ng/DL
  E2: 48.3*¶ pg/mL
  SHBG: 32 nmol/L
[3]; [11]
  DHT: 15.3 ng/dL
  E2: 24.7 pg/mL
  SHBG: 26.4 nmol/L
[3]; [12]
  DHT: 15.8 ng/dL
  E2: 40.2* pg/mL
  SHBG: 28.7 nmol/L
[4]
  increase in total hip BMD versus baseline: about 1.23%
